Measured values published in patent publication US20200231638A1, “STABILIZED ANTI-MICROBIAL PEPTIDES” (priority 2015, published 2020).
Read-outs that look alike come from different tables or passages of the source. Bridge positions count the residues as written; N and C are the ends. Square brackets hold non-standard residues; d marks the D form. Peptide text beside a SMILES is read from it. S5 = C=CCCC[C@](C)(N)C(=O)O; Nle = CCCC[C@H](N)C(=O)O

Assays:
E. coli = type: cell-based, Escherichia coli
In short: (§1)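 MIC read as the minimum peptide concentration showing no visible growth after 20-24 hours at 37° C. Cultures were grown overnight, then regrown several hours before testing. Medium was MHB refined by anion exchange to strip polyanions; final inoculum 5×10^5 CFU/ml.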

B. cereus = type: cell-based, Bacillus cereus
In short: as §1

S. aureus = type: cell-based, Staphylococcus aureus
In short: as §1

P. aeruginosa = type: cell-based, Pseudomonas aeruginosa
In short: as §1

human red blood cells = type: cell-based
In short: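 Hemolysis expressed as absorbance of released hemoglobin (570 nm) normalized between untreated and 1% Triton-X100 controls, with MHC taken as peptide concentration giving under 1% release. Peptide dilutions were exposed for 1 h at 37° C to a 1% (v/v) suspension of washed human red cells in PBS.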

Row | SMILES | MIC E. coli (E. coli) [µg/mL] | MIC B. cereus (B. cereus) [µg/mL] | MIC S. aureus (S. aureus) [µg/mL] | MIC P. aeruginosa (P. aeruginosa) [µg/mL] | % Hemolysis at 25 μg/ml (human red blood cells; red cells of human, 1 h, 25) [%] | % Hemolysis at 25 μg/ml (human red blood cells)
1 | CCCC[C@H](NC(=O)[C@]1(C)CCCC=CCCC[C@](C)(NC(=O)[C@H](C)NC(=O)[C@H](CCCCN)NC(=O)CNC(=O)[C@H](Cc2ccccc2)NC(=O)[C@H](CCCCN)NC(=O)[C@H](CCCCN)NC(=O)[C@H](CCCCN)NC(=O)[C@H](CO)NC(=O)[C@H](Cc2c[nH]cn2)NC(=O)[C@H](CC(C)C)NC(=O)[C@H](Cc2ccccc2)NC(=O)[C@H](CCCCN)NC(=O)CNC(=O)[C@@H](NC(=O)CN)[C@@H](C)CC)C(=O)N[C@@H](C(C)C)C(=O)NCC(=O)N[C@@H](CCC(=O)O)C(=O)N1)C(=O)N[C@@H](CC(N)=O)C(=O)N[C@@H](CO)C(N)=O [Mag(i + 4)15(A9K), GIGKFLHSKKKFGKAXVGEXBNS] (H-GIGKFLHSKKKFGKA[S5]VGE[S5][Nle]NS-NH2; staple 16-20) | 3.1 | >50 | >50 | 12.5 | 1.9 | 
2 | CCCC[C@H](NC(=O)[C@]1(C)CCCC=CCCC[C@](C)(NC(=O)[C@H](C)NC(=O)[C@H](CCCCN)NC(=O)[C@@H](CCCCN)NC(=O)[C@H](Cc2ccccc2)NC(=O)[C@H](CCCCN)NC(=O)[C@H](CCCCN)NC(=O)[C@H](C)NC(=O)[C@H](CO)NC(=O)[C@H](Cc2c[nH]cn2)NC(=O)[C@H](CC(C)C)NC(=O)[C@H](Cc2ccccc2)NC(=O)[C@H](CCCCN)NC(=O)CNC(=O)[C@@H](NC(=O)CN)[C@@H](C)CC)C(=O)N[C@@H](C(C)C)C(=O)NCC(=O)N[C@@H](CCC(=O)O)C(=O)N1)C(=O)N[C@@H](CC(N)=O)C(=O)N[C@@H](CO)C(N)=O [Mag(i + 4)15(G13k)] (H-GIGKFLHSAKKF[dK]KA[S5]VGE[S5][Nle]NS-NH2; staple 16-20) | 3.1 | 50 | >50 | 25 | 2.1 | 
3 | CCCC[C@H](NC(=O)[C@]1(C)CCCC=CCCC[C@](C)(NC(=O)[C@H](C)NC(=O)[C@H](CCCCN)NC(=O)CNC(=O)[C@H](Cc2ccccc2)NC(=O)[C@H](CCCCN)NC(=O)[C@H](CCCCN)NC(=O)[C@H](C)NC(=O)[C@H](CO)NC(=O)[C@H](Cc2c[nH]cn2)NC(=O)[C@H](CC(C)C)NC(=O)[C@H](Cc2ccccc2)NC(=O)[C@H](CCCCN)NC(=O)CNC(=O)[C@@H](NC(=O)CN)[C@@H](C)CC)C(=O)N[C@@H](CCC(=O)O)C(=O)NCC(=O)N[C@@H](CCC(=O)O)C(=O)N1)C(=O)N[C@@H](CC(N)=O)C(=O)N[C@@H](CO)C(N)=O [Mag(i + 4)15(V17E), GIGKFLHSAKKFGKAXEGEXBNS] (H-GIGKFLHSAKKFGKA[S5]EGE[S5][Nle]NS-NH2; staple 16-20) | 50 | >50 | >50 | >50 | 0.5 | 
4 | CC[C@H](C)[C@H](NC(=O)CN)C(=O)NCC(=O)N[C@@H](CCCCN)C(=O)N[C@@H](Cc1ccccc1)C(=O)N[C@@H](CC(C)C)C(=O)N[C@@H](Cc1c[nH]cn1)C(=O)N[C@@H](CO)C(=O)N[C@@H](C)C(=O)N[C@@H](CCCCN)C(=O)N[C@@H](CCCCN)C(=O)N[C@@H](Cc1ccccc1)C(=O)NCC(=O)N[C@@H](CCCCN)C(=O)N[C@@H](C)C(=O)N[C@@]1(C)CCCC=CCCC[C@@](C)(C(=O)N[C@@H](CCCCN)C(=O)N[C@@H](CC(N)=O)C(=O)N[C@@H](CO)C(N)=O)NC(=O)[C@H](CCC(=O)O)NC(=O)CNC(=O)[C@H](C(C)C)NC1=O [Mag(i + 4)15(B21K), GIGKFLHSAKKFGKAXVGEXKNS] (H-GIGKFLHSAKKFGKA[S5]VGE[S5]KNS-NH2; staple 16-20) | 1.6 | 25 | >50 | 6.2 | 3.7 | 
5 | CCCC[C@H](NC(=O)[C@]1(C)CCCC=CCCC[C@](C)(NC(=O)[C@H](C)NC(=O)[C@H](CCCCN)NC(=O)CNC(=O)[C@H](Cc2ccccc2)NC(=O)[C@H](CCCCN)NC(=O)[C@H](CCCCN)NC(=O)[C@H](Cc2c[nH]cn2)NC(=O)[C@H](CO)NC(=O)[C@]2(C)CCCC=CCCC[C@](C)(NC(=O)[C@H](CCCCN)NC(=O)CN)C(=O)N[C@@H](CCCCN)C(=O)N[C@@H](Cc3ccccc3)C(=O)N[C@@H](CC(C)C)C(=O)N2)C(=O)N[C@@H](C(C)C)C(=O)NCC(=O)N[C@@H](CCC(=O)O)C(=O)N1)C(=O)N[C@@H](CC(N)=O)C(=O)N[C@@H](CO)C(N)=O [Mag(i + 4)2, 15(I2X, A9H)] (H-GK[S5]KFL[S5]SHKKFGKA[S5]VGE[S5][Nle]NS-NH2; staple 3-7, 16-20) | 3.1 | 6.2 | 12.5 | 6.2 | 0.6 | completely eliminated
6 | CCCC[C@H](NC(=O)[C@]1(C)CCCC=CCCC[C@](C)(NC(=O)[C@H](C)NC(=O)[C@H](CCCCN)NC(=O)CNC(=O)[C@H](Cc2ccccc2)NC(=O)[C@H](CCCCN)NC(=O)[C@H](CCCCN)NC(=O)[C@H](C)NC(=O)[C@H](CO)NC(=O)[C@H](Cc2c[nH]cn2)NC(=O)[C@H](CC(C)C)NC(=O)[C@H](Cc2ccccc2)NC(=O)[C@H](CCCCN)NC(=O)[C@H](Cc2c[nH]cn2)NC(=O)[C@@H](NC(=O)CN)[C@@H](C)CC)C(=O)N[C@@H](C(C)C)C(=O)NCC(=O)N[C@@H](CCC(=O)O)C(=O)N1)C(=O)N[C@@H](CC(N)=O)C(=O)N[C@@H](CO)C(N)=O [Mag(i + 4)15(G3H), GIHKFLHSAKKFGKAXVGEXBNS] (H-GIHKFLHSAKKFGKA[S5]VGE[S5][Nle]NS-NH2; staple 16-20) | 1.6 | 6.2 | 25 | 12.5 | 5.1 | 
7 | CCCC[C@H](NC(=O)[C@]1(C)CCCC=CCCC[C@](C)(NC(=O)[C@H](C)NC(=O)[C@H](CCCCN)NC(=O)CNC(=O)[C@H](Cc2ccccc2)NC(=O)[C@H](CCCCN)NC(=O)[C@H](CCCCN)NC(=O)[C@H](Cc2c[nH]cn2)NC(=O)[C@H](CO)NC(=O)[C@]2(C)CCCC=CCCC[C@](C)(NC(=O)[C@H](CCCCN)NC(=O)CN)C(=O)N[C@@H](CCCCN)C(=O)N[C@@H](Cc3ccccc3)C(=O)N[C@@H](CC(C)C)C(=O)N2)C(=O)N[C@@H](C(C)C)C(=O)NCC(=O)N[C@@H](CCC(=O)O)C(=O)N1)C(=O)N[C@@H](CCC(=O)O)C(=O)N[C@@H](CO)C(N)=O [Mag(i + 4)2, 15(I2K, A9H, N21E)] (H-GK[S5]KFL[S5]SHKKFGKA[S5]VGE[S5][Nle]ES-NH2; staple 3-7, 16-20) | 3.1 | 25 | 50 | 12.5 | 1.8 | 
8 | CC(C)C[C@H](NC(=O)[C@H](Cc1ccc(O)cc1)NC(=O)[C@H](Cc1c[nH]cn1)NC(=O)[C@@H](NC(=O)[C@H](CC(C)C)NC(=O)[C@]1(C)CCCC=CCCC[C@](C)(NC(=O)[C@H](Cc2c[nH]cn2)NC(=O)[C@H](CCCCN)NC(=O)CNC(=O)[C@@H](NC(=O)[C@H](Cc2c[nH]cn2)NC(=O)[C@H](C)NC(=O)[C@H](CCCCN)NC(=O)[C@H](CCCCN)NC(=O)[C@H](CCCCN)NC(=O)[C@]2(C)CCCC=CCCC[C@](C)(NC(=O)CN)C(=O)NCC(=O)N[C@@H](CO)C(=O)N[C@@H](Cc3ccccc3)C(=O)N2)C(C)C)C(=O)NCC(=O)N[C@@H](CCCCN)C(=O)N[C@@H](C)C(=O)N1)[C@@H](C)O)C(N)=O [Pleu(i + 4)1, 15(A9K)] (H-G[S5]GSF[S5]KKKAHVGKH[S5]GKA[S5]LTHYL-NH2; staple 2-6, 16-20; N-terminus assumed) | 1.6 | 3.1 | 3.1 | 1.6 | 16.3 | 
9 | CCCC[C@H](NC(=O)[C@]1(C)CCCC=CCCC[C@](C)(NC(=O)[C@H](C)NC(=O)[C@H](CCCCN)NC(=O)CNC(=O)[C@H](Cc2ccccc2)NC(=O)[C@H](CCCCN)NC(=O)[C@H](CCCCN)NC(=O)[C@H](C)NC(=O)[C@H](CO)NC(=O)[C@H](Cc2c[nH]cn2)NC(=O)[C@H](CC(C)C)NC(=O)[C@H](Cc2ccccc2)NC(=O)[C@H](CCCCN)NC(=O)CNC(=O)[C@H](CCCCN)NC(=O)CN)C(=O)N[C@@H](C(C)C)C(=O)NCC(=O)N[C@@H](CCC(=O)O)C(=O)N1)C(=O)N[C@@H](CC(N)=O)C(=O)N[C@@H](CO)C(N)=O [Mag(i + 4)15(I2K), GKGKFLHSAKKFGKAXVGEXBNS] (H-GKGKFLHSAKKFGKA[S5]VGE[S5][Nle]NS-NH2; staple 16-20) | 1.6 | 12.5 | 23 | 3.1 | 2.3 | 
